The NIST ThermoML archive (doi:10.1016/j.jct.2004.10.005)

Test: molar heat capacity at saturation pressure
Conditions: Vacuum adiabatic calorimetry

BrC12CC3CC(CC(C3)C1)C2 [1-bromotricyclo[3.3.1.1(3,7)]decane]
Conditions	molar heat capacity [J/K/mol]
5.98 K, Crystal 4	1.102
6.34 K, Crystal 4	1.301
6.73 K, Crystal 4	1.56
7.05 K, Crystal 4	1.776
7.4 K, Crystal 4	2.048
7.78 K, Crystal 4	2.391
8.34 K, Crystal 4	2.94
8.96 K, Crystal 4	3.558
9.37 K, Crystal 4	4.013
9.8 K, Crystal 4	4.489
10.27 K, Crystal 4	5.11
10.71 K, Crystal 4	5.643
11.11 K, Crystal 4	6.154
11.51 K, Crystal 4	6.677
11.92 K, Crystal 4	7.254
12.35 K, Crystal 4	7.849
12.82 K, Crystal 4	8.366
13.25 K, Crystal 4	9.058
14.09 K, Crystal 4	10.21
14.56 K, Crystal 4	10.84
15 K, Crystal 4	11.48
15.42 K, Crystal 4	12.01
15.87 K, Crystal 4	12.79
16.34 K, Crystal 4	13.48
16.79 K, Crystal 4	14.11
17.32 K, Crystal 4	14.74
17.91 K, Crystal 4	15.58
18.48 K, Crystal 4	16.3
19.01 K, Crystal 4	17.14
19.61 K, Crystal 4	17.85
20.29 K, Crystal 4	18.72
20.93 K, Crystal 4	19.58
21.63 K, Crystal 4	20.43
22.39 K, Crystal 4	21.39
23.1 K, Crystal 4	22.23
23.9 K, Crystal 4	23.12
24.76 K, Crystal 4	24.04
25.69 K, Crystal 4	25.07
26.66 K, Crystal 4	26.14
27.58 K, Crystal 4	27.16
28.56 K, Crystal 4	28.01
29.52 K, Crystal 4	28.99
29.57 K, Crystal 4	29.29
30.13 K, Crystal 4	29.69
30.42 K, Crystal 4	30.4
30.62 K, Crystal 4	30.95
30.71 K, Crystal 4	31.25
31.02 K, Crystal 4	33.37
31.27 K, Crystal 3	31.25
31.56 K, Crystal 3	31.24
31.81 K, Crystal 3	31.34
32.25 K, Crystal 3	31.61
33.06 K, Crystal 3	32.35
33.28 K, Crystal 3	32.47
34.66 K, Crystal 3	33.75
36.35 K, Crystal 3	35.07
38.12 K, Crystal 3	36.42
39.98 K, Crystal 3	37.78
41.9 K, Crystal 3	39.06
43.96 K, Crystal 3	40.39
46.12 K, Crystal 3	41.85
48.32 K, Crystal 3	43.17
50.74 K, Crystal 3	44.52
53.31 K, Crystal 3	45.98
55.82 K, Crystal 3	47.36
58.21 K, Crystal 3	48.67
60.62 K, Crystal 3	50.13
63.03 K, Crystal 3	51.45
65.43 K, Crystal 3	52.6
67.86 K, Crystal 3	54.08
70.3 K, Crystal 3	55.24
72.8 K, Crystal 3	56.68
75.3 K, Crystal 3	57.96
77.74 K, Crystal 3	59.21
80.19 K, Crystal 3	60.74
82.69 K, Crystal 3	61.79
85.17 K, Crystal 3	63.27
87.66 K, Crystal 3	64.58
90.17 K, Crystal 3	65.86
92.68 K, Crystal 3	67.39
95.2 K, Crystal 3	68.53
97.74 K, Crystal 3	70.12
100.3 K, Crystal 3	71.52
100.96 K, Crystal 3	71.76
102.83 K, Crystal 3	72.73
104.15 K, Crystal 3	73.63
105.3 K, Crystal 3	74.09
107.32 K, Crystal 3	75.22
110.3 K, Crystal 3	76.73
113.21 K, Crystal 3	78.44
116.14 K, Crystal 3	79.82
119.1 K, Crystal 3	81.75
122.01 K, Crystal 3	83.28
124.86 K, Crystal 3	84.61
127.91 K, Crystal 3	86.56
131.28 K, Crystal 3	88.26
134.63 K, Crystal 3	90.38
137.93 K, Crystal 3	91.96
141.17 K, Crystal 3	93.89
144.35 K, Crystal 3	95.86
147.49 K, Crystal 3	97.33
150.64 K, Crystal 3	99.37
153.81 K, Crystal 3	101.4
156.99 K, Crystal 3	103
160.16 K, Crystal 3	104.9
160.53 K, Crystal 3	105.5
163.7 K, Crystal 3	107.4
166.86 K, Crystal 3	109.4
169.99 K, Crystal 3	111.2
173.09 K, Crystal 3	113.3
176.19 K, Crystal 3	115.1
179.34 K, Crystal 3	117.2
182.56 K, Crystal 3	119.4
185.78 K, Crystal 3	121.5
189.07 K, Crystal 3	123.6
192.43 K, Crystal 3	126.2
195.86 K, Crystal 3	128.7
199.38 K, Crystal 3	130.9
202.85 K, Crystal 3	133.7
206.29 K, Crystal 3	135.9
209.76 K, Crystal 3	138.8
213.19 K, Crystal 3	141.4
216.58 K, Crystal 3	143.7
220.01 K, Crystal 3	146.7
223.4 K, Crystal 3	149.2
226.82 K, Crystal 3	152.2
230.32 K, Crystal 3	155.2
230.97 K, Crystal 3	155.8
234.32 K, Crystal 3	158.8
237.7 K, Crystal 3	162.3
241 K, Crystal 3	166.2
241.09 K, Crystal 3	165.9
244.38 K, Crystal 3	169.3
244.57 K, Crystal 3	169.7
247.65 K, Crystal 3	173
248.16 K, Crystal 3	173.6
251.11 K, Crystal 3	177.1
251.71 K, Crystal 3	177.8
254.61 K, Crystal 3	181.5
255.15 K, Crystal 3	182.1
257.99 K, Crystal 3	186.2
258.5 K, Crystal 3	187.1
261.32 K, Crystal 3	192.1
261.93 K, Crystal 3	193.3
264.6 K, Crystal 3	198.2
265.32 K, Crystal 3	200.1
267.83 K, Crystal 3	205.5
268.59 K, Crystal 3	207.2
271.04 K, Crystal 3	214.7
271.85 K, Crystal 3	217.2
274.2 K, Crystal 3	227.6
275.09 K, Crystal 3	231.6
277.23 K, Crystal 3	248.5
278.12 K, Crystal 3	258.4
279.76 K, Crystal 3	284.9
280.08 K, Crystal 3	308.9
280.17 K, Crystal 3	297.9
280.56 K, Crystal 3	309.4
280.94 K, Crystal 3	336.3
281.3 K, Crystal 3	377.6
281.63 K, Crystal 3	422.2
281.93 K, Crystal 3	523.4
282.18 K, Crystal 3	643.2
282.41 K, Crystal 2	586.3
282.52 K, Crystal 2	470.3
282.69 K, Crystal 2	384.2
283.04 K, Crystal 2	278.4
283.48 K, Crystal 2	248.5
283.93 K, Crystal 2	226.3
284.68 K, Crystal 2	219.3
285.09 K, Crystal 2	222.5
286.24 K, Crystal 2	214.2
288.26 K, Crystal 2	209.5
290.59 K, Crystal 2	211.1
291.43 K, Crystal 2	211.7
293.15 K, Crystal 2	212.4
294.62 K, Crystal 2	213.4
295.8 K, Crystal 2	213.7
298.44 K, Crystal 2	215.6
298.96 K, Crystal 2	215.9
301.06 K, Crystal 2	217.3
303.6 K, Crystal 2	220.7
306.07 K, Crystal 2	236.7
308.13 K, Crystal 2	437.7
312.39 K, Crystal 1	249
314.9 K, Crystal 1	250.6
314.98 K, Crystal 1	251.1
317.39 K, Crystal 1	253.5
317.63 K, Crystal 1	254
